Measurements published in PubChem BioAssay AID2060904 (Molecular Pharmacology Branch, DTP, NCI, 2025).

System: 349418-098-R-PDC complex spheroid viability
Assay: Anticancer human tumor 349418-098-R-PDC patient-derived lung adenocarcinoma cell line growth inhibition [RAS]
Conditions: for IC50: curve of first compound; for viability, T/C: stronger effect = lower value
Excerpt: RAS pathway inhibitors in Combinations in Complex Spheroids
A high-throughput screen of multi-cell type tumor spheroids was designed to identify active combinations of RAS pathway inhibitors and targeted small molecules. Complex spheroids include a stromal component modeled by human endothelial cells (HUVEC) and fibroblasts modeled by human mesenchymal stem cells (MSCs). The concentration ranges selected for each drug and investigational agent were based upon clinically achievable concentrations if the clinical Cmax of the agent was known.
Compounds. The drugs and investigational agents: abemaciclib (NSC768073), cobimetinib (NSC768068), divarasib (GDC6063, NSC841802), docetaxel (NSC628503), GDC-1971 (RLY-1971, NSC841576), gemcitabine (NSC613327), inavolisib (NSC800729), ipatasertib (NSC767898), KB-0742 (NSC834161), MRTX-1133 (NSC836407), osimertinib (NSC779217), RMC-4630 (NSC839698), RMC-6236 (NSC851965), RMC-6291 (NSC852671), Ro-3306 (NSC812927), sapanisertib (NSC764658), SN-38 (NSC673596), staurosporine (NSC755774), SY5609 (NSC837396), and tovorafenib (DAY101, NSC766906), were obtained from the National Cancer Institute (NCI) Developmental Therapeutics Program Chemical Repository. The FDA-approved anticancer drug set is available from the NCI Developmental Therapeutics Program. […] The stock solutions were prepared in dimethyl sulfoxide (DMSO, Sigma-Aldrich, St. Louis, MO, cat. D2650) at 800-fold the tested concentration and stored at -70 degrees C prior to their use. All drugs and investigational agents were tested over a range starting from a high concentration at or near the clinical Cmax and decreasing in half-log increments. If the clinical Cmax for an agent had not been determined, the highest concentration tested was 10 microM.
Cell Culture. All cells were maintained in an incubator at 37 degrees C and 5% CO2 with 95% humidity. The PDC lines were cultured according to standard operating procedures established by the NCI PDMR. All PDCs were thawed and cultured in Matrigel-coated flasks prepared with a working solution of 1X Ham's F-12 nutrient mix, without supplementation (Invitrogen, Waltham, MA, cat. 11765054), 100 U/mL penicillin-streptomycin (Invitrogen, cat. 15140122), and 2.5% Matrigel (Corning Inc., Corning, NY, cat. 354248) for the first three passages. The 362531-283-R-J2-PDC and 782815-120-R-J1-PDC lines were cultured in 6C/Colon 1B media, which includes advanced DMEM/F-12 (Thermo Fisher Scientific, cat. 12634028), 10 mM HEPES (Thermo Fisher Scientific, cat. 15630080), 1X GlutaMAX supplement (Thermo Fisher Scientific, cat. 35050061), 0.1 mg/mL primocin (InvivoGen, San Diego, CA, cat. ant-pm-2), 10% defined fetal bovine serum, heat inactivated (HyClone Laboratories Inc., Logan, UT, cat. SH30070.03HI), 50% L-WRN conditioned media (ATCC, cat. CRL-3276), 1.25 mM N-Acetyl-L-cysteine (Sigma-Aldrich, cat. A9165), 10 mM nicotinamide (Sigma-Aldrich, cat. N0636), 1X B-27 supplement (Thermo Fisher Scientific, cat. 17504044), 1X N-2 supplement (Thermo Fisher Scientific, cat. 17502048), 50 ng/mL human EGF (Thermo Fisher Scientific, cat. PHG0311), and 10 microM Y-27632 dihydrochloride (Tocris Bioscience, cat. 1254). The K12877-001-R-J1-PDC line was cultured in 6I media, which includes all 6C/Colon 1B media plus 10 ng/mL human FGF-10 (PeproTech, cat. 100-26), 1 ng/mL human FGF-2 (PeproTech, cat. 100-18B), 1 µM prostaglandin E2 (Tocris Bioscience, cat. 2296), […] hydrocortisone (Sigma-Aldrich, cat. H4001), and […] bovine insulin (Sigma-Aldrich, cat. I6634). The K86415-001-R-J1-PDC line was cultured in 6D media, which includes all 6C/Colon 1B media components minus the L-WRN conditioned media. The 485176-168-R4-J1-PDC was cultured in PANC media, which includes all 6C/Colon 1B media plus 100 ng/mL human FGF-10 (PeproTech, cat. 100-26), 500 nM SB-431542 (Selleckchem, cat. S1067), and 10 nM gastrin (Tocris Bioscience, cat. 3006). […]
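Note: spheroids exposed to compound for seven days before viability readout.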

CC1(C)CCC(Nc2ncc(C(F)(F)F)c(-c3c[nH]c4c(P(C)(C)=O)c(C#N)ccc34)n2)CN1 (centres undefined) + CCn1c(-c2cccnc2C(C)OC)c2c3cc(ccc31)N1CCOC(CC(NC(=O)C(C(C)C)N(C)C(=O)C3(F)CCN(C(=O)C#CC(C)(C)N(C)C)CC3)C(=O)N3CCCC(N3)C(=O)OCC(C)(C)C2)C1
IC50 (second compound 0.000949 µM): < 0.949 nM
IC50 (second compound 0.003 µM): 1.31 nM
IC50 (second compound 0.00949 µM): < 0.949 nM
IC50 (second compound 0.03 µM): 1.25 nM
IC50 (second compound 0.0949 µM): 1.02 nM
IC50 (second compound 0.3 µM): 1.15 nM
viability, T/C (second compound 0.000949 µM, first compound 0.000949 µM): 36.9%
viability, T/C (second compound 0.000949 µM, first compound 0.003 µM): 19.5%
viability, T/C (second compound 0.000949 µM, first compound 0.00949 µM): 10.7%
viability, T/C (second compound 0.000949 µM, first compound 0.03 µM): 8.99%
viability, T/C (second compound 0.000949 µM, first compound 0.0949 µM): 8.61%
viability, T/C (second compound 0.000949 µM, first compound 0.3 µM): 7.56%
viability, T/C (second compound 0.003 µM, first compound 0.000949 µM): 60.5%
viability, T/C (second compound 0.003 µM, first compound 0.003 µM): 22.8%
viability, T/C (second compound 0.003 µM, first compound 0.00949 µM): 14.4%
viability, T/C (second compound 0.003 µM, first compound 0.03 µM): 9.79%
viability, T/C (second compound 0.003 µM, first compound 0.0949 µM): 9.1%
viability, T/C (second compound 0.003 µM, first compound 0.3 µM): 8.13%
viability, T/C (second compound 0.00949 µM, first compound 0.000949 µM): 49.8%
viability, T/C (second compound 0.00949 µM, first compound 0.003 µM): 19.5%
viability, T/C (second compound 0.00949 µM, first compound 0.00949 µM): 12.2%
viability, T/C (second compound 0.00949 µM, first compound 0.03 µM): 9.39%
viability, T/C (second compound 0.00949 µM, first compound 0.0949 µM): 9.09%
viability, T/C (second compound 0.00949 µM, first compound 0.3 µM): 6.88%
viability, T/C (second compound 0.03 µM, first compound 0.000949 µM): 59.3%
viability, T/C (second compound 0.03 µM, first compound 0.003 µM): 21.2%
viability, T/C (second compound 0.03 µM, first compound 0.00949 µM): 12.3%
viability, T/C (second compound 0.03 µM, first compound 0.03 µM): 8.37%
viability, T/C (second compound 0.03 µM, first compound 0.0949 µM): 9.21%
viability, T/C (second compound 0.03 µM, first compound 0.3 µM): 7.47%
viability, T/C (second compound 0.0949 µM, first compound 0.000949 µM): 52.1%
viability, T/C (second compound 0.0949 µM, first compound 0.003 µM): 22%
viability, T/C (second compound 0.0949 µM, first compound 0.00949 µM): 9.91%
viability, T/C (second compound 0.0949 µM, first compound 0.03 µM): 7.89%
viability, T/C (second compound 0.0949 µM, first compound 0.0949 µM): 8.73%
viability, T/C (second compound 0.0949 µM, first compound 0.3 µM): 7.62%
viability, T/C (second compound 0.3 µM, first compound 0.000949 µM): 55.7%
viability, T/C (second compound 0.3 µM, first compound 0.003 µM): 22.5%
viability, T/C (second compound 0.3 µM, first compound 0.00949 µM): 9.85%
viability, T/C (second compound 0.3 µM, first compound 0.03 µM): 9.41%
viability, T/C (second compound 0.3 µM, first compound 0.0949 µM): 8.24%
viability, T/C (second compound 0.3 µM, first compound 0.3 µM): 6.74%

O=C(c1ccc(F)c(F)c1Nc1ccc(I)cc1F)N1CC(O)([C@@H]2CCCCN2)C1 + CCn1c(-c2cccnc2C(C)OC)c2c3cc(ccc31)N1CCOC(CC(NC(=O)C(C(C)C)N(C)C(=O)C3(F)CCN(C(=O)C#CC(C)(C)N(C)C)CC3)C(=O)N3CCCC(N3)C(=O)OCC(C)(C)C2)C1
IC50 (second compound 0.000949 µM): < 3.16 nM
IC50 (second compound 0.003 µM): < 3.16 nM
IC50 (second compound 0.00949 µM): < 3.16 nM
IC50 (second compound 0.03 µM): < 3.16 nM
IC50 (second compound 0.0949 µM): < 3.16 nM
IC50 (second compound 0.3 µM): < 3.16 nM
viability, T/C (second compound 0.000949 µM, first compound 0.00316 µM): 26.5%
viability, T/C (second compound 0.000949 µM, first compound 0.01 µM): 22.8%
viability, T/C (second compound 0.000949 µM, first compound 0.0316 µM): 15.6%
viability, T/C (second compound 0.000949 µM, first compound 0.1 µM): 12.7%
viability, T/C (second compound 0.000949 µM, first compound 0.316 µM): 7.76%
viability, T/C (second compound 0.000949 µM, first compound 1 µM): 5.98%
viability, T/C (second compound 0.003 µM, first compound 0.00316 µM): 29.4%
viability, T/C (second compound 0.003 µM, first compound 0.01 µM): 24.1%
viability, T/C (second compound 0.003 µM, first compound 0.0316 µM): 17.2%
viability, T/C (second compound 0.003 µM, first compound 0.1 µM): 11.3%
viability, T/C (second compound 0.003 µM, first compound 0.316 µM): 6.93%
viability, T/C (second compound 0.003 µM, first compound 1 µM): 5.43%
viability, T/C (second compound 0.00949 µM, first compound 0.00316 µM): 28.6%
viability, T/C (second compound 0.00949 µM, first compound 0.01 µM): 17.8%
viability, T/C (second compound 0.00949 µM, first compound 0.0316 µM): 14.9%
viability, T/C (second compound 0.00949 µM, first compound 0.1 µM): 10.6%
viability, T/C (second compound 0.00949 µM, first compound 0.316 µM): 7.5%
viability, T/C (second compound 0.00949 µM, first compound 1 µM): 6.07%
viability, T/C (second compound 0.03 µM, first compound 0.00316 µM): 30.2%
viability, T/C (second compound 0.03 µM, first compound 0.01 µM): 14.9%
viability, T/C (second compound 0.03 µM, first compound 0.0316 µM): 15.8%
viability, T/C (second compound 0.03 µM, first compound 0.1 µM): 12%
viability, T/C (second compound 0.03 µM, first compound 0.316 µM): 7.23%
viability, T/C (second compound 0.03 µM, first compound 1 µM): 5.04%
viability, T/C (second compound 0.0949 µM, first compound 0.00316 µM): 27.1%
viability, T/C (second compound 0.0949 µM, first compound 0.01 µM): 17.5%
viability, T/C (second compound 0.0949 µM, first compound 0.0316 µM): 13.2%
viability, T/C (second compound 0.0949 µM, first compound 0.1 µM): 10.3%
viability, T/C (second compound 0.0949 µM, first compound 0.316 µM): 6.84%
viability, T/C (second compound 0.0949 µM, first compound 1 µM): 5.79%
viability, T/C (second compound 0.3 µM, first compound 0.00316 µM): 30.1%
viability, T/C (second compound 0.3 µM, first compound 0.01 µM): 15.8%
viability, T/C (second compound 0.3 µM, first compound 0.0316 µM): 12.9%
viability, T/C (second compound 0.3 µM, first compound 0.1 µM): 11.1%
viability, T/C (second compound 0.3 µM, first compound 0.316 µM): 7.31%
viability, T/C (second compound 0.3 µM, first compound 1 µM): 5.8%
